From patent US12495798B2, “Nicotinamide compound and herbicidal composition comprising compound” (KOREA RESEARCH INSTITUTE OF CHEMICAL TECHNOLOGY, priority 2019, dated 2025)

Tests used:
Type in all cases: in vivo
barnyard grass [1] = assay: Herbicidal activity test against upland field weeds (foliar treatment test); conditions: 50 g ai/ha, scale 0-100
Summary of the method: (§1)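 Weeds were raised from seed or rootstocks in horticultural soil in a greenhouse (30±5° C., 14/10 h light/dark), then foliage was hand-sprayed with compound at 50 or 75 g a.i./ha in 50% acetone with 0.1% Tween-20. Control was scored visually 0–100 against untreated plants after 14 days, or 21 if needed.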

fall panicum = assay: as above; conditions: 50 g ai/ha, scale 0-100
Summary of the method: as §1

cocklebur [2] = assay: as above; conditions: 50 g ai/ha, scale 0-100
Summary of the method: as §1

barnyard grass [3] = assay: Herbicidal activity test against upland field weeds (soil treatment test); parameters: key to Soil treatment herbicidal activity, barnyard grass: 0 (no control); 100 (complete control); conditions: 50 g ai/ha, scale 0 (no control) to 100 (complete control)
Summary of the method: (§2)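 Pre-emergence test: seeds or rootstocks were sown in fertilized sandy loam, and the next day the soil surface was sprayed with compound at 50 or 75 g a.i./ha in 50% acetone/0.1% Tween-20. Plants were grown in a greenhouse (30±5 °C, 14/10 h light/dark), then visually scored 0–100 against untreated at 14 d (21 d if needed).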

crabgrass = assay: as above; parameters: key to Soil treatment herbicidal activity, Crabgrass: 0 (no control); 100 (complete control); conditions: 50 g ai/ha, scale 0 (no control) to 100 (complete control)
Summary of the method: as §2

indian jointvetch = assay: as above; parameters: key to Soil treatment herbicidal activity, Indian jointvetch: 0 (no control); 100 (complete control); conditions: 50 g ai/ha, scale 0 (no control) to 100 (complete control)
Summary of the method: as §2

cocklebur [4] = assay: as above; parameters: key to Soil treatment herbicidal activity, Cocklebur: 0 (no control); 100 (complete control); conditions: 50 g ai/ha, scale 0 (no control) to 100 (complete control)
Summary of the method: as §2

bindweed = assay: as above; parameters: key to Soil treatment herbicidal activity, Bindweed: 0 (no control); 100 (complete control); conditions: 50 g ai/ha, scale 0 (no control) to 100 (complete control)
Summary of the method: as §2

corn = assay: Phytotoxicity test for field crops (soil treatment test); parameters: key: 0 (no harm); 9 (complete withered)
Summary of the method: (§3)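 Applied as a soil treatment one day after sowing, at final rates of 19˜300 g a.i./ha. Damage is graded visually (0 = no harm, 9 = complete withered) compared with untreated control, 10 and 20 days after treatment.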

cotton = assay: as above; parameters: key: 0 (no harm); 9 (complete withered)
Summary of the method: as §3

rice = assay: as above; parameters: key: 0 (no harm); 9 (complete withered)
Summary of the method: as §3

soybean = assay: as above; parameters: key: 0 (no harm); 9 (complete withered)
Summary of the method: as §3

wheat = assay: as above; parameters: key: 0 (no harm); 9 (complete withered)
Summary of the method: as §3

quack grass = assay: Herbicidal activity test against upland field weeds (foliar treatment test); parameters: key to Foliar treatment herbicidal activity, quack grass: 0 (no control); 100 (complete control); conditions: 50 g ai/ha, scale 0-100
Summary of the method: as §1

[5] = 50 g ai/ha, Corn (10 days after treatment)
[6] = 50 g ai/ha, Corn (20 days after treatment)
[7] = 100 g ai/ha, Corn (10 days after treatment)
[8] = 100 g ai/ha, Corn (20 days after treatment)
[9] = 50 g ai/ha, Cotton (10 days after treatment)
[10] = 50 g ai/ha, Cotton (20 days after treatment)
[11] = 100 g ai/ha, Cotton (10 days after treatment)
[12] = 100 g ai/ha, Cotton (20 days after treatment)
[13] = 50 g ai/ha, Rice (10 days after treatment)
[14] = 50 g ai/ha, Rice (20 days after treatment)
[15] = 100 g ai/ha, Rice (10 days after treatment)
[16] = 100 g ai/ha, Rice (20 days after treatment)
[17] = 50 g ai/ha, Wheat (10 days after treatment)
[18] = 50 g ai/ha, Wheat (20 days after treatment)
[19] = 100 g ai/ha, Wheat (10 days after treatment)
[20] = 100 g ai/ha, Wheat (20 days after treatment)

Compound | Soil treatment herbicidal activity, barnyard grass (barnyard grass [3]) | Soil treatment herbicidal activity, Crabgrass (crabgrass) | Soil treatment herbicidal activity, Indian jointvetch (indian jointvetch) | Soil treatment herbicidal activity, Cocklebur (cocklebur [4]) | Soil treatment herbicidal activity, Bindweed (bindweed) | Soil treatment phytotoxicity, Corn (corn; [5]) | Soil treatment phytotoxicity, Corn (corn; [6]) | Soil treatment phytotoxicity, Corn (corn; [7]) | Soil treatment phytotoxicity, Corn (corn; [8]) | Soil treatment phytotoxicity, Cotton (cotton; [9]) | Soil treatment phytotoxicity, Cotton (cotton; [10]) | Soil treatment phytotoxicity, Cotton (cotton; [11]) | Soil treatment phytotoxicity, Cotton (cotton; [12]) | Soil treatment phytotoxicity, Rice (rice; [13]) | Soil treatment phytotoxicity, Rice (rice; [14]) | Soil treatment phytotoxicity, Rice (rice; [15]) | Soil treatment phytotoxicity, Rice (rice; [16]) | Soil treatment phytotoxicity, Wheat (wheat; [17]) | Soil treatment phytotoxicity, Wheat (wheat; [18]) | Soil treatment phytotoxicity, Wheat (wheat; [19]) | also measured
Cn1cnc(COCc2nc(C(F)F)ccc2C(=O)Nc2nnnn2C)n1 [Compound No. 2-85] | 0 | 0 | 55 | 25 | 35 | 0 | 0 | 0 | 0 | 0 | 0 | 2 | 0 | 0 | 0 | 1 | 0 | 0 | 0 | 0 | Foliar treatment herbicidal activity, barnyard grass (barnyard grass [1]): 99; Foliar treatment herbicidal activity, Fall panicum (fall panicum): 84; Foliar treatment herbicidal activity, Cocklebur (cocklebur [2]): 97; Soil treatment phytotoxicity, Soybean (soybean; 50 g ai/ha, Soybean (10 days after treatment)): 2; Soil treatment phytotoxicity, Soybean (soybean; 50 g ai/ha, Soybean (20 days after treatment)): 0; Soil treatment phytotoxicity, Soybean (soybean; 100 g ai/ha, Soybean (10 days after treatment)): 3; Soil treatment phytotoxicity, Soybean (soybean; 100 g ai/ha, Soybean (20 days after treatment)): 0; Soil treatment phytotoxicity, Wheat (wheat; [20]): 0
Cn1nnc(COc2nc(C(F)(F)F)ccc2C(=O)Nc2nnnn2C)n1 [Compound No. 2-1, N-(1-methyl-1H-tetrazol-5-yl)-2-((2-methyl-2H-tetrazol-5-yl)methoxy)-6-(trifluoromethyl)nicotinamide] | 0 | 0 | 0 | 0 | 0 | 0 | 0 | 0 | 0 | 1 | 2 | 4 | 7 | 3 | 3 | 5 | 5 | 0 | 0 | 0 | pest or weed control at 50 g/ha (barnyard grass [1]; Echinochloa crus-galli): 98%; Foliar treatment herbicidal activity, quack grass (quack grass): 0; pest or weed control at 50 g/ha (fall panicum; Panicum dichotomiflorum): 70%; pest or weed control at 50 g/ha (cocklebur [2]; Xanthium strumarium): 60%; Soil treatment phytotoxicity, Wheat (wheat; [20]): 0
